Experimental data published in BindingDB's records for patent US9145380 (Astrazeneca, 2015).

Target: T1, Prostaglandin E synthase (Homo sapiens, UniProt O14684)
T1 sequence (O14684 whole entry): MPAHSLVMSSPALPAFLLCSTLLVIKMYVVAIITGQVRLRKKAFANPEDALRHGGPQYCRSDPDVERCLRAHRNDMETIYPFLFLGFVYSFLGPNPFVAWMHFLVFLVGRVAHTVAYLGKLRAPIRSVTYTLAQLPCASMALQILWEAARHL
Assay: Biochemical Assay
Settings: pH 6.8
Method: A solution of test compound was added to a diluted microsome preparation containing human mPGES-1 and pre-incubated for 15 minutes in potassium phosphate buffer pH 6.8 with cofactor glutathione (GSH). Corresponding solutions without test compound were used as positive controls, and corresponding solutions without test compound and without microsomes were used as negative controls. The enzymatic reaction was then started by addition of the substrate PGH2 in an organic solution (dry acetonitrile).The typical reaction conditions of the enzymatic reaction were thus: Test compound: ranging from 60 uM to 0.002 uM, or zero in positive and negative controls; potassium phosphate buffer pH 6.8: 50 mM; GSH: 2.5 mM; mPGES-1-containing microsomes: 2 ug/mL (sample and positive controls) or 0 ug/mL (negative control); PGH2: 10.8 uM; Acetonitrile: 7.7% (v/v); DMSO: 0.6% (v/v). The reaction was stopped after one minute by adding an acidic solution (pH 1.9) of ferric chloride.

COc1ccc(Br)cc1/C=C/S(=O)(=O)Nc1ccc(C#CC(C)(C)O)cc1S(N)(=O)=O [US9145380, 179]
IC50: 6.2 µM
